Source: patent publication EP4707277A1, “NOVEL HETEROCYCLIC AMINE DERIVATIVES AND PHARMACEUTICAL COMPOSITION COMPRISING SAME” (Daewoong Pharmaceutical Co., Ltd., priority 2023, dated 2024)
Read-outs that look alike come from different tables or passages of the source.

How the values were obtained:
[1] = biological target: T1, BTK (Homo sapiens, UniProt Q06187); experiment: Inhibitory activity against BTK, ADP-Glo Kinase system (Promega); assay type: biochemical
T1 construct: purchased Signalchem B10-10H
T1 sequence (Q06187 whole entry): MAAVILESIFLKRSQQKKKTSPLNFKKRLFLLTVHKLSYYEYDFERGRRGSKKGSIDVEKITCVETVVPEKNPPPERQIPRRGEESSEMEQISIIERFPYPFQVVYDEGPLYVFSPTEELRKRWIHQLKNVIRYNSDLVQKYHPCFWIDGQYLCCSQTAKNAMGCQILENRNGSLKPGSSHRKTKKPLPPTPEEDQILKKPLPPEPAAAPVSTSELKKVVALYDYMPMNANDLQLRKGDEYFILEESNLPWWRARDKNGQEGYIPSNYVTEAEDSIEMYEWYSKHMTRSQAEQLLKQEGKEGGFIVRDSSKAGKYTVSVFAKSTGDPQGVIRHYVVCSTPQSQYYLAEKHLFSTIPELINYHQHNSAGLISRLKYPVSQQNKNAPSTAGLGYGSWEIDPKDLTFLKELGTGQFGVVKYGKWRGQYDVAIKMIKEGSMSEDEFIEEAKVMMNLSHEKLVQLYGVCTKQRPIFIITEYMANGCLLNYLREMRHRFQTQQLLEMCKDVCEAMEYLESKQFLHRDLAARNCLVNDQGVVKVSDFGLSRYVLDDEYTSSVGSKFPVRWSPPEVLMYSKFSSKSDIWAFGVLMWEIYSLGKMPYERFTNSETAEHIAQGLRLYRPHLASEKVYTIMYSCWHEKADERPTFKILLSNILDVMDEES
Method in brief: (§1)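 ADP-Glo luminescent ADP detection with recombinant human ITK (4 ng/reaction) or BTK (10 ng/reaction) and poly(Glu4,Tyr1) substrate at 0.2 µg/µl. Buffer: Tris pH 7.5, MgCl2, MnCl2, BSA, DTT. ATP 1 mM or Km (BTK 10 µM, ITK 25 µM); 1% DMSO; 1 h at 30°C; IC50 from curve fit.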

[2] = biological target: T2, ITK (Homo sapiens, UniProt Q08881); experiment: Inhibitory activity against ITK, ADP-Glo Kinase system (Promega); assay type: biochemical
T2 construct: purchased Signalchem I13-11G-10
T2 sequence (Q08881 1-620): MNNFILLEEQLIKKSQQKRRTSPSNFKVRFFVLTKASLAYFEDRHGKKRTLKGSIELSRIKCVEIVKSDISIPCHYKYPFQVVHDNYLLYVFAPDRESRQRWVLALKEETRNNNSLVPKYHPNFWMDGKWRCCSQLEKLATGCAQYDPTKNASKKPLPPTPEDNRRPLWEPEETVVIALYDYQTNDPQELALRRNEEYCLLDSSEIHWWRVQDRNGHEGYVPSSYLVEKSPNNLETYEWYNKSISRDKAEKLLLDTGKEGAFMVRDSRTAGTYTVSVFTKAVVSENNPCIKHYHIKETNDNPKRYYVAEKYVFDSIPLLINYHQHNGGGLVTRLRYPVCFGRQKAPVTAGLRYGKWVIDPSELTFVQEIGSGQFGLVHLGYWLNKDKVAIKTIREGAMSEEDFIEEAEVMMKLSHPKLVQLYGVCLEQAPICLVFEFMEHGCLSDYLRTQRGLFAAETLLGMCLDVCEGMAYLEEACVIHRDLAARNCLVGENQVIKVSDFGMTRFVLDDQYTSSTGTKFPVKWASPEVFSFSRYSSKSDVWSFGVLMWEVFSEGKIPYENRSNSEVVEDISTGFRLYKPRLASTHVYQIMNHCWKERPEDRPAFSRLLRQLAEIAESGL
Method in brief: as §1

[3] = Km ATP (BTK: 10 uM), read-out: BTK IC50(nM) Km ATP
[4] = Km ATP (ITK: 25uM), read-out: ITK IC50(nM) Km ATP
[5] = 1mM ATP, read-out: BTK IC50(nM) 1mM ATP
[6] = 1mM ATP, read-out: ITK IC50(nM) 1mM ATP

In the case of C=CC(=O)Nc1cc(-c2nc(Nc3ncc(C)s3)cc3c2ccn3CC(F)F)ccc1C [Example 74, N-(5-(1-(2,2-difluoroethyl)-6-((5-methylthiazol-2-yl)amino)-1H-pyrrolo[3,2-c]pyridin-4-yl)-2-methylphenyl)acrylamide], the IC50 [1, 3] is reported as ≤ 20 nM and the IC50 [2, 4] is reported as ≤ 20 nM.
For C=CC(=O)N1CCC[C@H](Oc2nc(Nc3ncc(C)s3)cc3c2ccn3C)C1 [Example 158, (S)-1-(3-((1-methyl-6-((5-methylthiazol-2-yl)amino)-1H-pyrrolo[3,2-c]pyridin-4-yl)oxy)piperidin-1-yl)prop-2-en-1-one], the IC50 [1, 5] was ≤ 20 nM and the IC50 [2, 6] was 20 to 100 nM.
With C=CC(=O)N1CC=C(c2nc(Nc3ncc[nH]3)cc3c2ccn3C)CC1 [Example 40, 1-(4-(6-((1H-imidazol-2-yl)amino)-1-methyl-1H-pyrrolo[3,2-c]pyridin-4-yl)-3,6-dihydropyridin-1(2H)-yl)prop-2-en-1-one] the IC50 [1, 3] was 100 to 500 nM and the IC50 [2, 4] was > 500 nM.
C=CC(=O)N1C[C@H](F)[C@H](Oc2nc(Nc3ncc(C)s3)cc3c2ccn3CCCF)C1 [Example 191, 1-((3S,4R)-3-fluoro-4-((1-(3-fluoropropyl)-6-((5-methylthiazol-2-yl)amino)-1H-pyrrolo[3,2-c]pyridin-4-yl)oxy)pyrrolidin-1-yl)prop-2-en-1-one] was tested, and the IC50 [1, 5] was ≤ 20 nM and the IC50 [2, 6] was ≤ 20 nM.
For C=CC(=O)N1C2C=C(c3nc(Nc4ncc(C)s4)cc4c3ccn4C)CC1CCC2 (stereo not shown) [Example 36, 1-(3-(1-methyl-6-((5-methylthiazol-2-yl)amino)-1H-pyrrolo[3,2-c]pyridin-4-yl)-9-azabicyclo[3.3.1]non-2-en-9-yl)prop-2-en-1-one], the IC50 [1, 5] was ≤ 20 nM and the IC50 [2, 6] was ≤ 20 nM.
With C=CC(=O)N1CCC[C@@H](COc2nc(Nc3ncc(C)s3)cc3c2ccn3CC(C)C)C1 [Example 214, (R)-1-(3-(((1-isobutyl-6-((5-methylthiazol-2-yl)amino)-1H-pyrrolo[3,2-c]pyridin-4-yl)oxy)methyl)piperidin-1-yl)prop-2-en-1-one] the IC50 [1, 5] was 20 to 100 nM and the IC50 [2, 6] was > 500 nM.
For C=CC(=O)N1C2C=C(c3nc(Nc4ncc(C)s4)cc4c3ccn4CC(C)C)CC1CC2 (stereo not shown) [Example 32, 1-(3-(1-isobutyl-6-((5-methylthiazol-2-yl)amino)-1H-pyrrolo[3,2-c]pyridin-4-yl)-8-azabicyclo[3.2.1]oct-2-en-8-yl)prop-2-en-1-one], the IC50 [1, 5] was ≤ 20 nM, the IC50 [1, 3] was ≤ 20 nM and the IC50 [2, 6] was ≤ 20 nM. The IC50 [2, 4] was ≤ 20 nM.
C=CC(=O)Nc1cc(-c2nc(Nc3ncc(C)s3)cc3c2ccn3CC2CC2)ccc1F [Example 64, N-(5-(1-(cyclopropylmethyl)-6-((5-methylthiazol-2-yl)amino)-1H-pyrrolo[3,2-c]pyridin-4-yl)-2-fluorophenyl)acrylamide] was tested, and the IC50 [1, 3] was ≤ 20 nM and the IC50 [2, 4] was ≤ 20 nM.
In the case of C=CC(=O)N1C[C@@H](Oc2nc(Nc3ncc(C)s3)cc3c2ccn3C2CCCC2)C[C@H]1C [Example 100, 1-((2R,4S)-4-((1-cyclopentyl-6-((5-methylthiazol-2-yl)amino)-1H-pyrrolo[3,2-c]pyridin-4-yl)oxy)-2-methylpyrrolidin-1-yl)prop-2-en-1-one], the IC50 [1, 5] is reported as ≤ 20 nM and the IC50 [2, 6] is reported as ≤ 20 nM.
With C=CC(=O)N1CC=C(c2nc(Nc3ncc(C)s3)cc3c2ccn3CCc2ccccc2)CC1 [Example 16, 1-(4-(6-((5-methylthiazol-2-yl)amino)-1-phenethyl-1H-pyrrolo[3,2-c]pyridin-4-yl)-3,6-dihydropyridin-1(2H)-yl)prop-2-en-1-one] the IC50 [1, 3] was ≤ 20 nM and the IC50 [2, 4] was ≤ 20 nM.
For C=CC(=O)N1CCC[C@H](Oc2nc(Nc3ncc(C)s3)cc3c2ccn3CC)C1 [Example 153, (S)-1-(3-((1-ethyl-6-((5-methylthiazol-2-yl)amino)-1H-pyrrolo[3,2-c]pyridin-4-yl)oxy)piperidin-1-yl)prop-2-en-1-one], the IC50 [1, 5] was ≤ 20 nM and the IC50 [2, 6] was 20 to 100 nM.
C=CC(=O)N1CC=C(c2nc(Nc3cc(C(F)(F)F)ccn3)cc3c2ccn3C(C)C)CC1 [Example 48, 1-(4-(1-isopropyl-6-((4-(trifluoromethyl)pyridin-2-yl)amino)-1H-pyrrolo[3,2-c]pyridin-4-yl)-3,6-dihydropyridin-1(2H)-yl)prop-2-en-1-one] was tested, and the IC50 [1, 5] was 20 to 100 nM and the IC50 [2, 6] was 20 to 100 nM.
With C=CC(=O)N1CCC[C@H]1COc1nc(Nc2ncc(C)s2)cc2c1ccn2C1CCCC1 [Example 222, (S)-1-(2-(((1-cyclopentyl-6-((5-methylthiazol-2-yl)amino)-1H-pyrrolo[3,2-c]pyridin-4-yl)oxy)methyl)pyrrolidin-1-yl)prop-2-en-1-one] the IC50 [1, 5] was ≤ 20 nM and the IC50 [2, 6] was 20 to 100 nM.
C=CC(=O)N1CCC2(CC(Oc3nc(Nc4ncc(C)s4)cc4c3ccn4CC(C)C)C2)C1 (stereo not shown) [Example 202, 1-(2-((1-isobutyl-6-((5-methylthiazol-2-yl)amino)-1H-pyrrolo[3,2-c]pyridin-4-yl)oxy)-6-azaspiro[3.4]octan-6-yl)prop-2-en-1-one] showed an IC50 [1, 5] of 100 to 500 nM and an IC50 [2, 6] of 100 to 500 nM.
For C=CC(=O)Nc1ccc(F)c(-c2nc(Nc3ncc(C)s3)cc3c2ccn3CC2CC2)c1 [Example 61, N-(3-(1-(cyclopropylmethyl)-6-((5-methylthiazol-2-yl)amino)-1H-pyrrolo[3,2-c]pyridin-4-yl)-4-fluorophenyl)acrylamide], the IC50 [1, 3] was ≤ 20 nM and the IC50 [2, 4] was ≤ 20 nM.
With C=CC(=O)N1CC[C@H]1COc1nc(Nc2ncc(C)s2)cc2c1ccn2C(C)C [Example 86, (S)-1-(2-(((1-isopropyl-6-((5-methylthiazol-2-yl)amino)-1H-pyrrolo[3,2-c]pyridin-4-yl)oxy)methyl)azetidin-1-yl)prop-2-en-1-one] the IC50 [1, 5] was ≤ 20 nM and the IC50 [2, 6] was 20 to 100 nM.
C=CC(=O)N1CC(C)(Oc2nc(Nc3ncc(C)s3)cc3c2ccn3CCOC)C1 [Example 168, 1-(3-((1-(2-methoxyethyl)-6-((5-methylthiazol-2-yl)amino)-1H-pyrrolo[3,2-c]pyridin-4-yl)oxy)-3-methylazetidin-1-yl)prop-2-en-1-one] was tested, and the IC50 [1, 5] was > 500 nM and the IC50 [2, 6] was > 500 nM.
For C=CC(=O)N1CC=C(c2nc(Nc3ncc(C)s3)cc3c2ccn3CC2CCC(F)(F)CC2)CC1 [Example 11, 1-(4-(1-((4,4-difluorocyclohexyl)methyl)-6-((5-methylthiazol-2-yl)amino)-1H-pyrrolo[3,2-c]pyridin-4-yl)-3,6-dihydropyridin-1(2H)-yl)prop-2-en-1-one], the IC50 [1, 3] was ≤ 20 nM and the IC50 [2, 4] was ≤ 20 nM.
C=CC(=O)N1CCCCC12CC(Oc1nc(Nc3ncc(C)s3)cc3c1ccn3CC(C)C)C2 (stereo not shown) [Example 203, 1-(2-((1-isobutyl-6-((5-methylthiazol-2-yl)amino)-1H-pyrrolo[3,2-c]pyridin-4-yl)oxy)-5-azaspiro[3.5]nonan-5-yl)prop-2-en-1-one] was tested, and the IC50 [1, 5] was > 500 nM and the IC50 [2, 6] was > 500 nM.
With C=CC(=O)Nc1cc(-c2nc(Nc3ncc(C)s3)cc3c2ccn3CC2CCOC2)ccc1F (stereo not shown) [Example 72, N-(2-fluoro-5-(6-((5-methylthiazol-2-yl)amino)-1-((tetrahydrofuran-3-yl)methyl)-1H-pyrrolo[3,2-c]pyridin-4-yl)phenyl)acrylamide] the IC50 [1, 3] was ≤ 20 nM and the IC50 [2, 4] was ≤ 20 nM.
C=CC(=O)N1C2C=C(c3nc(Nc4ncc(C)s4)cc4c3ccn4CC(F)(F)F)CC1CC2 (stereo not shown) [Example 35, 1-(3-(6-((5-methylthiazol-2-yl)amino)-1-(2,2,2-trifluoroethyl)-1H-pyrrolo[3,2-c]pyridin-4-yl)-8-azabicyclo[3.2.1]oct-2-en-8-yl)prop-2-en-1-one] was tested, and the IC50 [1, 5] was ≤ 20 nM and the IC50 [2, 6] was ≤ 20 nM.
C=CC(=O)N1CCC12CC(Oc1nc(Nc3ncc(C)s3)cc3c1ccn3CC(C)C)C2 (stereo not shown) [Example 137, 1-(6-((1-isobutyl-6-((5-methylthiazol-2-yl)amino)-1H-pyrrolo[3,2-c]pyridin-4-yl)oxy)-1-azaspiro[3.3]heptan-1-yl)prop-2-en-1-one] was tested, and the IC50 [1, 5] was ≤ 20 nM and the IC50 [2, 6] was ≤ 20 nM.
In the case of C=CC(=O)Nc1cc(-c2nc(Nc3ncc(C)s3)cc3c2ccn3C)ccc1C [Example 55, N-(2-methyl-5-(1-methyl-6-((5-methylthiazol-2-yl)amino)-1H-pyrrolo[3,2-c]pyridin-4-yl)phenyl)acrylamide], the IC50 [1, 3] is reported as ≤ 20 nM and the IC50 [2, 4] is reported as ≤ 20 nM.
C=CC(=O)N1CC[C@H](Oc2nc(Nc3ncc(C)s3)cc3c2ccn3CC(C)C)C1 [Example 81, (S)-1-(3-((1-isobutyl-6-((5-methylthiazol-2-yl)amino)-1H-pyrrolo[3,2-c]pyridin-4-yl)oxy)pyrrolidin-1-yl)prop-2-en-1-one] was tested, and the IC50 [1, 5] was ≤ 20 nM and the IC50 [2, 6] was ≤ 20 nM.
With C=CC(=O)N1CC=C(c2nc(Nc3cc(C)ncn3)cc3c2ccn3C(C)C)CC1 [Example 44, 1-(4-(1-isopropyl-6-((6-methylpyrimidin-4-yl)amino)-1H-pyrrolo[3,2-c]pyridin-4-yl)-3,6-dihydropyridin-1(2H)-yl)prop-2-en-1-one] the IC50 [1, 5] was 20 to 100 nM and the IC50 [2, 6] was 100 to 500 nM.
